PubChem BioAssay AID256 (DTP/NCI, 2004)
Several values for one entry are separate records, joined by “and”; a condition that tells them apart may be missing. Identical values can stand only once. Toxic doses and inconclusive results are not listed.

Tested on: CD2F1 mice, L1210 leukemia ip, survival T/C
Test: NCI In Vivo Anticancer Drug Screen. Data for tumor model L1210 Leukemia (intraperitoneal) in CD2F1 (CDF1) mice
Settings: higher = longer survival
Procedure, shortened: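 Antitumor effect is scored in animals hosting a serially transplanted tumor. Values compare compound-dosed animals against vehicle-only controls as a simple quotient.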

[1] = endpoint: mean survival time, dose: 100.0 mg/kg/injection, schedule: Q04DX003 (ip), vehicle: saline with Tween-80
[2] = endpoint: mean survival time, dose: 200.0 mg/kg/injection, schedule: Q04DX003 (ip), vehicle: saline with Tween-80
[3] = endpoint: mean survival time, dose: 400.0 mg/kg/injection, schedule: Q04DX003 (ip), vehicle: saline with Tween-80
[4] = endpoint: mean survival time, dose: 50.0 mg/kg/injection, schedule: Q01DX009 (ip), vehicle: saline with Tween-80
[5] = endpoint: mean survival time, dose: 100.0 mg/kg/injection, schedule: Q01DX009 (ip), vehicle: saline with Tween-80
[6] = endpoint: mean survival time, dose: 200.0 mg/kg/injection, schedule: Q01DX009 (ip), vehicle: saline with Tween-80
[7] = endpoint: mean survival time, dose: 400.0 mg/kg/injection, schedule: Q01DX009 (ip), vehicle: saline with Tween-80

In the case of `Oc1ccc(-c2ccc(O)cc2)cc1`, the T/C (endpoint: mean survival time, dose: 50.0 mg/kg/injection, schedule: Q04DX003 (ip), vehicle: saline with Tween-80) was 100 % of control, the T/C [1] was 101 % of control and 107 % of control and the T/C [2] was 109 % of control. The T/C [3] was 121 % of control.
For `CCCCCCCCCCCCSC1=CC(=O)C(OC)=C(OC)C1=O`, the T/C (endpoint: mean survival time, dose: 0.78 mg/kg/injection, schedule: Q01DX009 (ip), vehicle: other) was 95 % of control, the T/C (endpoint: mean survival time, dose: 1.56 mg/kg/injection, schedule: Q01DX009 (ip), vehicle: other) was 95 % of control and the T/C (endpoint: mean survival time, dose: 3.13 mg/kg/injection, schedule: Q01DX009 (ip), vehicle: other) was 97 % of control. For the same molecule, the T/C (endpoint: mean survival time, dose: 6.25 mg/kg/injection, schedule: Q01DX009 (ip), vehicle: other) was 97 % of control, the T/C (endpoint: mean survival time, dose: 12.5 mg/kg/injection, schedule: Q01DX009 (ip), vehicle: other) was 95 % of control and the T/C (endpoint: mean survival time, dose: 25.0 mg/kg/injection, schedule: Q01DX009 (ip), vehicle: other) was 94 % of control.
In the case of `CCCCCC(/C=C/C1C=CC(=O)C1C/C=C/CCCC(=O)OC)OC(C)=O` (stereo not given), the T/C [1] was 95 % of control, the T/C [2] was 100 % of control and the T/C [3] was 95 % of control.
For `Nc1ncnc2c1[nH]c(=S)n2C1OC(CO)C(O)C1O` (stereo not given), the T/C (endpoint: mean survival time, dose: 100.0 mg/kg/injection, schedule: Q04DX002 (ip), vehicle: saline with Tween-80) was 107 % of control, the T/C (endpoint: mean survival time, dose: 200.0 mg/kg/injection, schedule: Q04DX002 (ip), vehicle: saline with Tween-80) was 103 % of control and the T/C (endpoint: mean survival time, dose: 400.0 mg/kg/injection, schedule: Q04DX002 (ip), vehicle: saline with Tween-80) was 100 % of control.
In the case of `O=NN(CCCl)C(=O)Oc1cc(Cl)c(Cl)cc1Cl`, the T/C (endpoint: median survival time, dose: 6.0 mg/kg/injection, schedule: Q01DX009 (ip), vehicle: Klucel (hydroxypropylcellulose) (HPC)) was 106 % of control, the T/C (endpoint: median survival time, dose: 12.0 mg/kg/injection, schedule: Q01DX009 (ip), vehicle: Klucel (hydroxypropylcellulose) (HPC)) was 124 % of control and the T/C (endpoint: median survival time, dose: 12.5 mg/kg/injection, schedule: Q01DX009 (ip), vehicle: Klucel (hydroxypropylcellulose) (HPC)) was 109 % of control. For the same molecule, the T/C (endpoint: median survival time, dose: 50.0 mg/kg/injection, schedule: Q01DX009 (ip), vehicle: Klucel (hydroxypropylcellulose) (HPC)) was 195 % of control.
With `COc1cc(Cl)ccc1NC(=O)Oc1ccc(Cl)cc1Br` the T/C [4] was 96 % of control, the T/C [5] was 96 % of control and the T/C [6] was 96 % of control.
`CC1=CC(=O)C(C(C)C)CC1=O` (stereo not given) was tested, and the T/C (endpoint: mean survival time, dose: 6.25 mg/kg/injection, schedule: Q01DX009 (ip), vehicle: saline with Tween-80) was 98 % of control, the T/C (endpoint: mean survival time, dose: 12.5 mg/kg/injection, schedule: Q01DX009 (ip), vehicle: saline with Tween-80) was 102 % of control and the T/C (endpoint: mean survival time, dose: 25.0 mg/kg/injection, schedule: Q01DX009 (ip), vehicle: saline with Tween-80) was 95 % of control.
In the case of `CC1(C)OC2COC3(COC(C)(C)O3)C(OS(C)(=O)=O)C2O1` (stereo not given), the T/C [5] was 102 % of control, the T/C [6] was 93 % of control and the T/C [7] was 95 % of control.
In the case of `O=S(=O)(Nc1c(O)ccc2ccccc12)c1ccccc1`, the T/C [1] was 97 % of control, the T/C [2] was 97 % of control and the T/C [3] was 92 % of control.
`CN=Cc1ccccc1` was tested, and the T/C (endpoint: mean survival time, dose: 25.0 mg/kg/injection, schedule: Q01DX009 (ip), vehicle: saline) was 97 % of control, the T/C (endpoint: mean survival time, dose: 50.0 mg/kg/injection, schedule: Q01DX009 (ip), vehicle: saline) was 97 % of control and the T/C (endpoint: mean survival time, dose: 100.0 mg/kg/injection, schedule: Q01DX009 (ip), vehicle: saline) was 100 % of control.
`CC(NC=O)c1c[nH]c(=O)[nH]c1=O` (stereo not given) was tested, and the T/C [5] was 100 % of control, the T/C [6] was 97 % of control and the T/C [7] was 97 % of control.
`COC(=O)c1ccc(N=NN(C)C)cc1` was tested, and the T/C (endpoint: mean survival time, dose: 23.0 mg/kg/injection, schedule: Q01DX009 (ip), vehicle: Klucel (hydroxypropylcellulose) (HPC)) was 108 % of control, the T/C (endpoint: mean survival time, dose: 39.0 mg/kg/injection, schedule: Q01DX009 (ip), vehicle: Klucel (hydroxypropylcellulose) (HPC)) was 108 % of control and the T/C (endpoint: mean survival time, dose: 65.0 mg/kg/injection, schedule: Q01DX009 (ip), vehicle: Klucel (hydroxypropylcellulose) (HPC)) was 116 % of control.
For `Nc1c(C(=O)NOCc2ccccc2)ncn1C1CCCC1`, the T/C (endpoint: mean survival time, dose: 50.0 mg/kg/injection, schedule: Q01DX001 (ip), vehicle: other) was 104 % of control and the T/C (endpoint: mean survival time, dose: 100.0 mg/kg/injection, schedule: Q01DX001 (ip), vehicle: other) was 102 % of control.
With `COC(=O)c1ccn2c1CCC2` the T/C (endpoint: mean survival time, dose: 25.0 mg/kg/injection, schedule: Q01DX009 (ip), vehicle: Klucel (hydroxypropylcellulose) (HPC)) was 92 % of control, the T/C (endpoint: mean survival time, dose: 50.0 mg/kg/injection, schedule: Q01DX009 (ip), vehicle: Klucel (hydroxypropylcellulose) (HPC)) was 87 % of control and the T/C (endpoint: mean survival time, dose: 100.0 mg/kg/injection, schedule: Q01DX009 (ip), vehicle: Klucel (hydroxypropylcellulose) (HPC)) was 91 % of control. The T/C (endpoint: mean survival time, dose: 200.0 mg/kg/injection, schedule: Q01DX009 (ip), vehicle: Klucel (hydroxypropylcellulose) (HPC)) was 97 % of control and the T/C (endpoint: mean survival time, dose: 400.0 mg/kg/injection, schedule: Q01DX009 (ip), vehicle: Klucel (hydroxypropylcellulose) (HPC)) was 87 % of control.
For `CCCCCCCCC(=O)O`, the T/C [1] was 100 % of control, the T/C [2] was 100 % of control and the T/C [3] was 102 % of control.
For `O=C(NCCCN1CC1)C(=O)NCCCN1CC1`, the T/C (endpoint: mean survival time, dose: 3.13 mg/kg/injection, schedule: Q01DX009 (ip), vehicle: saline) was 191 % of control and the T/C (endpoint: mean survival time, dose: 12.5 mg/kg/injection, schedule: Q01DX009 (ip), vehicle: saline) was 101 % of control.
For `N#Cc1nc(/C=C\c2ccc3c(c2)OCO3)cnc1N`, the T/C (endpoint: mean survival time, dose: 100.0 mg/kg/injection, schedule: Q01DX001 (ip), vehicle: Klucel (hydroxypropylcellulose) (HPC)) was 90 % of control, the T/C (endpoint: mean survival time, dose: 200.0 mg/kg/injection, schedule: Q01DX001 (ip), vehicle: Klucel (hydroxypropylcellulose) (HPC)) was 90 % of control and the T/C (endpoint: mean survival time, dose: 400.0 mg/kg/injection, schedule: Q01DX001 (ip), vehicle: Klucel (hydroxypropylcellulose) (HPC)) was 90 % of control.
In the case of `COC1=C(N)C(=O)c2nc(-c3nc(C(=O)O)c(C)c(-c4ccc(OC)c(OC)c4O)c3N)ccc2C1=O`, the T/C (endpoint: mean survival time, dose: 0.25 mg/kg/injection, schedule: Q01DX009 (ip), vehicle: saline with Tween-80) was 117 % of control, the T/C (endpoint: mean survival time, dose: 0.5 mg/kg/injection, schedule: Q01DX009 (ip), vehicle: saline with Tween-80) was 100 % of control and the T/C (endpoint: mean survival time, dose: 0.5 mg/kg/injection, schedule: Q04DX003 (ip), vehicle: saline with Tween-80) was 118 % of control. The T/C (endpoint: mean survival time, dose: 1.0 mg/kg/injection, schedule: Q04DX003 (ip), vehicle: saline with Tween-80) was 105 % of control.
For `N#Cc1cn(C2CCCCC2)c2[nH]c(=O)cc(O)c12`, the T/C (endpoint: mean survival time, dose: 100.0 mg/kg/injection, schedule: Q04DX003 (ip), vehicle: saline) was 97 % of control, the T/C (endpoint: mean survival time, dose: 200.0 mg/kg/injection, schedule: Q04DX003 (ip), vehicle: saline) was 101 % of control and the T/C (endpoint: mean survival time, dose: 400.0 mg/kg/injection, schedule: Q04DX003 (ip), vehicle: saline) was 121 % of control.
With `CSc1nc(NC2OC(CO)C(O)C(O)C2O)c(Br)c(=O)[nH]1` (stereo not given) the T/C (endpoint: median survival time, dose: 12.5 mg/kg/injection, schedule: Q01DX005 (ip), vehicle: saline with Tween-80) was 101 % of control, the T/C (endpoint: median survival time, dose: 25.0 mg/kg/injection, schedule: Q01DX005 (ip), vehicle: saline with Tween-80) was 101 % of control and the T/C (endpoint: median survival time, dose: 50.0 mg/kg/injection, schedule: Q01DX005 (ip), vehicle: saline with Tween-80) was 100 % of control. The T/C (endpoint: median survival time, dose: 100.0 mg/kg/injection, schedule: Q01DX005 (ip), vehicle: saline with Tween-80) was 101 % of control and the T/C (endpoint: median survival time, dose: 200.0 mg/kg/injection, schedule: Q01DX005 (ip), vehicle: saline with Tween-80) was 100 % of control.
For `COC(CNC1=C(C)C(=O)C2=C(C1=O)[C@H](COC(N)=O)[C@]1(OC)[C@@H]3N[C@@H]3CN21)OC`, the T/C (endpoint: mean survival time, dose: 1.5 mg/kg/injection, schedule: Q01DX001 (ip), vehicle: water) was 118 % of control, the T/C (endpoint: mean survival time, dose: 3.0 mg/kg/injection, schedule: Q01DX001 (ip), vehicle: water) was 119 % of control and 109 % of control and the T/C (endpoint: mean survival time, dose: 6.0 mg/kg/injection, schedule: Q01DX001 (ip), vehicle: water) was 119 % of control. For the same molecule, the T/C (endpoint: mean survival time, dose: 24.0 mg/kg/injection, schedule: Q01DX001 (ip), vehicle: water) was 151 % of control and 296 % of control and the T/C (endpoint: mean survival time, dose: 48.0 mg/kg/injection, schedule: Q01DX001 (ip), vehicle: water) was 86 % of control.
With `COc1cc(Cl)ccc1NC(=O)OCCOc1cc(OC)c(Cl)c(OC)c1` the T/C [5] was 101 % of control, the T/C [6] was 103 % of control and the T/C [7] was 101 % of control.
For `CC(C)(C)OC(=O)NCCCC(N)C(=O)O` (stereo not given), the T/C [1] was 92 % of control, the T/C [2] was 94 % of control and the T/C [3] was 94 % of control.
For `Cc1ccc(NC(=O)OCCOc2ccc([N+](=O)[O-])cc2)c(C)c1`, the T/C [4] was 93 % of control, the T/C [5] was 98 % of control and the T/C [6] was 89 % of control.
In the case of `CN1CCN(c2ccccc2)CC1`, the T/C (endpoint: mean survival time, dose: 100.0 mg/kg/injection, schedule: Q01DX001 (ip), vehicle: saline) was 112 % of control.
For `Nc1nc(N)c(N)c(N)n1`, the T/C (endpoint: mean survival time, dose: 75.0 mg/kg/injection, schedule: Q01DX001 (ip), vehicle: saline with Tween-80) was 94 % of control, the T/C [5] was 90 % of control and the T/C [1] was 98 % of control. The T/C (endpoint: mean survival time, dose: 150.0 mg/kg/injection, schedule: Q01DX001 (ip), vehicle: saline with Tween-80) was 101 % of control, the T/C [6] was 104 % of control and the T/C (endpoint: mean survival time, dose: 300.0 mg/kg/injection, schedule: Q01DX001 (ip), vehicle: saline with Tween-80) was 103 % of control. The T/C [7] was 93 % of control.
